Assay [1] has as its system patients présentant une artériopathie oblitérante périphérique aux stades cliniques IIa et IIb. As to the kind of experiment: Clinical trial: pain-free walking distance on treadmill before and after six weeks of isovolemic then hypervolemic hemodilution. Type of assay: in vivo.
From the text: Cet exemple décrit un essai clinique effectué sur deux groupes A et B de 9 patients présentant une artériopathie oblitérante périphérique aux stades cliniques IIa et IIb. Tous ces patients présentaient des oblitérations d'un ou plusieurs jours ou des microangiopathies des membres inférieurs. En outre, la fluidité du sang de ces patients était trés limitée.
Les patients du groupe A (âge moyen: 60 ans) reçoivent un traitement combiné par dilution isovolémique et dilution hypervolémique au moyen de HES 200 (poids moléculaire 200.000) et de piracétam.
A cet effet, en 4 à 5 séances, on prélève chaque fois 500 ml de sang que l'on remplace par une perfusion isovolémique de 500 ml d'une solution aqueuse stérile à 10% de HES 200 contenant 12 g de piracétam. Le rapport en poids entre le HES 200 et le piracétam est donc de 4,1 : 1.
Entre chaque séance de perfusion isovolémique s'écoule un intervalle de 2 à 3 jours pendant lequel les patients reçoivent 12 g de piracétam par jour sous forme d'une suspension buvable.
Ensuite, on administre trois fois par semaine, en perfusion hypervolémique, 500 ml de la solution à 10% de HES 200 contenant 12 g de piracétam.
Le groupe B constitue le groupe témoin et les patients de ce groupe (âge moyen: 60 ans) reçoivent le même traitement, mais sans addition de piracétam.
For assay [2] the test system is unchanged. As to the kind of experiment: Clinical trial: hemorheological parameters (blood fluidity, erythrocyte aggregation). Type of assay: in vivo. To be noted: after treatment; piracétam given together with HES 200.
From the text: Parallèlement au traitement, on a déterminé avant et après celui-ci la fluidité du sang des patients étudiés.
Cet exemple décrit un essai clinique effectué sur deux groupes A et B de 9 patients présentant une artériopathie oblitérante périphérique aux stades cliniques IIa et IIb. […] En outre, la fluidité du sang de ces patients était trés limitée.
Dans les deux groupes de patients, on a également suivi l'évolution de divers paramètres hémorhéologiques.

The structures appear in SMILES notation.

`NC(=O)CN1CCCC1=O` [piracétam, 2-oxo-1-pyrrolidineacétamide]: the “temps de claudication et douleurs” value in assay [1] (12 g piracétam added to 500 ml of 10% HES 200) is “nette diminution”. For the same molecule, in assay [1] (12 g piracétam added to 500 ml of 10% HES 200, versus the same without piracétam), the “distance moyenne de marche sans douleur” value was “augmente de manière trés significative”. The fluidité du sang entry in assay [2] is recorded as “la meilleure”.
